# According to patent US6417159B1 (Queen's University at Kingston, priority 1996, dated 2002):
# Tests used:
# Assay type in all cases: cell-based, rat
# PC12 cells [1] = assay: MTT assay of mitochondrial function
# Protocol: A colorimetric assay measuring the number and respiratory activity of surviving cells (Mossman, 1983) was used to monitor the effect of the synthetic peptides on PC12 cells. Culture plates (96-233, Flow, flat bottom) were seeded with 4,000 cells per well and received treatment identical to the cells read for neurite formation. At the indicated times, the medium was removed from the wells with a Pasteur pipette and replaced with 110 μl of RPMI+10% fetal calf serum containing 0.45 mg·ml^−1 MTT (Sigma) and the plate were returned to a humidified, 5% CO2 incubator for 4 hours. 100 μl of 0.4N HCl in isopropanol was then added to each well with trituration (approximately 50 times) to solublize the formazan. The plates were read 10 minutes later in a flow Titertek Multiskan equipped with a 570 nm filter, and the optical density values obtained were corrected for cell-free blank. In each experiment, the values are the average of at least triplicate determinations normalized to its control. The MTT dye conversion was linear with number of viable cells over the range seeded, i.e. 2000 to 10,000 cells per well.
# PC12 cells [2] = assay: NGF-mediated neurite growth by PC12 cells
# Protocol: (§1) PC12 cells or PC12^nnr5 cells (Loeb et al., 1991) were seeded on poly-D-lysine-coated (0.1 mg·ml^−1, overnight) 96-well microculture dishes (Falcon) at approximately 800 cells per well with RPMI with 10% fetal calf serum. Peptides were added to replicate wells 48 hours before, or at the time of, addition of NGF. NGF was prepared by the method of Mobley et al. (1976) and used at 1-2 nM. Other additives were diluted at least 100-fold and added to the wells as described. At various times following incubation at 37° C., 5% CO2, wells were scored for neurite-bearing cells by serial counting of representative circumferences of each well.
# (§2) A Leitz Diavert inverted microscope with phase optics was used to score neurite growth. For both PC12 cells and sensory neurons, a neurite was scored as such if its calibre from origin to terminal was approximately the same and the length was equal to or greater than 1.5 cell body diameters.
# PC12^nnr5 cells = assay: NGF-mediated neurite growth by PC12nnr5 cells; conditions: absence or presence of R3 peptide
# Protocol: as §1, §2
# PC12 cells [3] = assay: Acid phosphatase assay of cell survival, PC12 cells; conditions: PC12 (high-TrkA), serum-free conditions
# Protocol: This is a colorimetric assay which measures the lysosomal enzyme acid phosphatase to determine cell number (Connolly et al., 1986) modified by Ueda et al. (1994) for use with cultured neuronal cells. Medium was removed gently from PC12 or PC12^nnr5 cells cultured in 96 well plates and well were washed once with 200 μl PBS. Then 100 μl of buffer containing 0.1M sodium acetate pH 5.5, 0.1% TRITON™ X-100, and 10 mM p-nitrophenyl phosphate (Sigma 104 phosphatase substrate) was added to each well. Plates were placed in a 37° C., 5% CO2 incubator for 3 hours. The reaction was stopped by the addition of 10 μl/well of 1N sodium hydroxide and the colour development measured at 405 nm using a microplate reader (Titertek). The first column on each plate contained no cells (buffer only) and was used as a blank. The relationship between cell number and enzyme activity was linear over the range 1000 to 15,000 cells.
# To exclude the possibility that the effects of R3 on neurite growth in the experiments described above were indirect and mediated by an influence on cell survival, PC12 and PC12^nnr5 cells were exposed to serum free conditions in the absence and presences of NGF, and in the absence and presence of R3. […] Nor was there any difference in NGF-mediated survival whether R3 exposure occurred before or at the same time as NGF exposure. […]
sequence,measurement,setting,value
LDALLAALRRIQR [R3],"Mitochondrial succinate dehydrogenase activity (MTT), in words",PC12 cells [1],not enhanced
same,"Effect of R3 on enhancement of NGF-mediated neurite growth in presence of Mg2+, in words",PC12 cells [2]; 10 mM Mg^+2,inhibited completely
same,"Neurite growth-enhancing effect of R3 in presence of pertussis toxin, in words",PC12 cells [2]; PC12 cells pre-treated with pertussis toxin,did not influence
same,"Effect on NGF-mediated neurite growth, co-incubation, in words","PC12 cells [2]; PC12 cells, peptide co-incubated with NGF",enhanced temporally the neurite growth response
same,Time of maximal effect on NGF-mediated neurite growth,PC12 cells [2]; all concentrations of R3,40 to 48 h
same,"Effect on neurite growth response to NGF, pre-incubation, in words",PC12 cells [2]; peptide present 24 or 48 hours prior to addition of NGF,inhibited transiently
same,"Neurite growth in PC12nnr5 cells with NGF, in words",PC12^nnr5 cells,no effects on neurite growth
same,"Influence on NGF-mediated cell survival, in words",PC12 cells [3],no influence on NGF-mediated survival
